Holding throughout (type): in vivo, human
Series [1] is described as follows: Plasma vasopressin during constant vasopressin infusion in normal subjects and ESRD patients (Example 3, FIG. 8). Conditions: normal subjects vs patients with ESRD. How it is done:
Plasma vasopressin concentration. Vasopressin in plasma was determined as previously described (Landry, D. W., H. R. Levin, et al. (1997). Circulation 95(5): 1122–5).
Administration of vasopressin. In eight normal subjects and eight patients with ESRD off dialysis, 8-arginine vasopressin (vasopressin, American Pharmaceutical Partners, Schaumberg, Ill.) in normal saline was administered through an antecubital intravenous line. In eight patients with ESRD during hemodialysis, vasopressin was infused through the venous (blood return) limb of the dialysis circuit throughout the dialysis session at a rate of 0.15 or 0.3 mU·kg^−1·min^−1.
Effect of vasopressin administration on its plasma concentration in normal subjects and Patients with ESRD. Because the effect of renal failure on the clearance of plasma vasopressin has remained unresolved (Shade, R. E. and L. Share (1976). Endocrinology 99(5): 1199–206; Benmansour, M., M. Rainfray, et al. (1982). Eur J Clin Invest 12(6): 475–80; Argent, N. B., R. Wilkinson, et al. (1992). Clin Sci (Lond) 83(5): 583–7), we administered a constant infusion of hormone to normal subjects and to patients with ESRD and measured plasma levels.

Series [2] relates to patients with end-stage renal disease. Kind of series: Systolic arterial pressure during AVP infusion in ESRD patients off dialysis (Example 1). Conditions: for systolic arterial blood pressure: ESRD, n=12, M ± SD. Here is the method: Healthy controls and patients with end-stage renal disease (e.g. defined as creatinine clearance of less than 10 ml/min) were studied. The studies were conducted on regularly scheduled hemodialysis days. The duration of hemodialysis remained the same as that prescribed prior to the study period. AVP or placebo (normal saline) was administered at a constant rate of 0.15, 0.3 or o.6 mU/kg/min through a venous line (controls) or through the venous limb of the dialysis circuit (hemodialysis patients). The patient's hemodialysis prescription remained unchanged except for the administration of AVP or placebo. Intradialytic hypotension was treated in the customary manner with the infusion of isotonic and hypertonic fluids.
Serum AVP levels were determined by a radioimmunoassay technique. Blood pressure was measured with a cuff-type sphygmomanometer at 20 minute intervals.
We discovered that patients with ERSD are hypersensitive to vasopressin's pressor action.
The administration of exogenous AVP to patients with ESDR led to the discovery that these patients are hyper-responsive to the vascular effect of this hormone.

Series [3] has as its system hypertensive patients with ESRD on chronic hemodialysis. Kind of series: Randomized double-blinded trial of vasopressin vs placebo during hemodialysis with 0.5 kg increased target weight reduction (Example 3). Conditions: vasopressin 0.3 mU·kg^−1·min^−1 during dialysis; for Lowest SAP: p=0.02 vs placebo; for Symptomatic hypotensive episodes: one of eleven patients, p=0.001 vs placebo. Here is the method:
All patients were studied at regularly scheduled dialysis sessions. Patients underwent conventional hemodialysis with hollow fiber high flux polysulfone dialyzers on volumetric dialysis machines (Cobe Centrysystem 3, Gambro Renal Care Products, Inc., Lakewood, Colo.). Dialysis times were 3.5–4.5 hours. Blood flow was 300–400 mL/min and dialysate was delivered at 600 mL/min. The dialysis bath contained potassium, 2 mEq/L; calcium, 2.5 mEq/L; magnesium, 0.75 mEq/L; and bicarbonate, 40 mEq/L. In those patients who were prescribed dialysate sodium modeling and/or reduced dialysate temperature (35–37° C.) prior to the study, the parameters of these interventions were held constant throughout the study. Ultrafiltration was performed at a constant rate based on the target weight loss for that dialysis session. Oscillometric blood pressure and heart rate measurements were taken at 15–30 minute intervals.
Exclusion criteria for all studies were: 1) active vascular disease, including angina, claudication, transient ischemic events, ischemic colitis and Raynaud's disease, 2) a history of prolonged QT syndrome, 3) a history of orthostatic hypotension and 4) a systolic blood pressure greater than 200 mm Hg and/or a diastolic blood pressure greater than 100 mm Hg. Fluid was administered for pressor support at the discretion of the dialysis staff, blinded to the study drug, on the basis of hypotensive episodes during dialysis. Excess fluid removed was defined as the difference between the baseline prescription weight loss and the actual weight loss achieved during the study hemodialysis.
Hemodialysis-induced fluid removal during vasopressin administration in hypertensive patients. 22 patients with ESRD on chronic hemodialysis and hypertension (defined by a systolic arterial pressure greater than 140 mm Hg or the requirement of anti-hypertensive medications to maintain a lower systolic arterial pressure) were studied. A randomized, controlled and double blinded trial compared the effect of vasopressin (0.3 mU·kg^−1·min^−1) or placebo (normal saline) on the capacity to tolerate a 0.5 kg increase in the target weight reduction specified by the standard dialysis prescription. Patients were studied only if their pre-dialysis weight was within ±1 kg. of the mean pre-dialysis weight of the previous three sessions.
Otherwise the hemodialysis routine was unchanged and its management was left to the health care personnel performing the treatment, who where not involved in the study. The nurse administering the hemodialysis treatment managed hypotensive episodes per routine with administration of normal saline and/or a decrease in ultrafiltration rate. Symptomatic hypotension was identified by the nurse conducting the dialysis and criteria included a sudden drop in systolic arterial pressure associated with one or more of the following: lightheadedness, dizziness, cramping, nausea and vomiting.
Statistical Analyses. Analyses were performed using Statistical Package for the Social Sciences, version 9. Changes in hemodynamic parameters within patients during each session and between sessions were analyzed by repeated measures of ANOVA. Analysis of continuous variables between treatment arms was performed using the Friedman (two-way) analysis of variance. All values are expressed as mean±SE unless otherwise stated. P values of less than […] (two-tailed) were considered statistically significant.
Effect of vasopressin administration during increased hemodialysis-induced luid removal. […]

The structures appear in SMILES notation. Entries after “also recorded” stand apart in the source; their conditions may differ.

As to `NC(=O)CC[C@@H]1NC(=O)[C@H](Cc2ccccc2)NC(=O)[C@H](Cc2ccc(O)cc2)NC(=O)[C@@H](N)CSSC[C@@H](C(=O)N2CCC[C@H]2C(=O)N[C@@H](CCCN=C(N)N)C(=O)NCC(N)=O)NC(=O)[C@H](CC(N)=O)NC1=O` [AVP, 8-arginine vasopressin], the “effect of renal failure on clearance of plasma vasopressin” value in series [1] was “does not alter the clearance”. In addition, the “systolic arterial blood pressure” value is recorded as 162 ± 30 in series [2] (30 minutes of AVP infusion); 161 ± 32 in series [2] (60 minutes of AVP infusion); 161 ± 28 in series [2] (90 minutes of AVP infusion); 150 ± 31 in series [2] (120 minutes of AVP infusion); 153 ± 28 in series [2] (before infusion (baseline)). Besides, the “pressor action of AVP” value in series [2] (patients with end-stage renal disease, same dose as in normal subjects (FIG. 3B)) is recorded as “increases blood pressure; also recorded: increased systolic arterial blood pressure”. Besides, the “Mean SAP during dialysis” value in series [3] (11 patients, mean±SE) was 145 ± 6 mmHg. The “Lowest SAP” value was found to be 130 ± 7 mmHg in series [3] (11 patients, mean±SE, listed as Vasopressin) and 130±7 mmHg in series [3] (11 patients, mean±SE, listed as vasopressin). In addition, the “Maximum drop in SAP from mean” value is given as 17 ± 2 mmHg in series [3] (11 patients, mean±SE, p=0.03 vs placebo, listed as Vasopressin) and 17±2 mmHg in series [3] (11 patients, mean±SE, p=0.03 vs placebo, listed as vasopressin). In addition, the Symptomatic hypotensive episodes in series [3] (listed as Vasopressin) stood at 9 ± 1%; in series [3] (listed as vasopressin), 9%. Also, the “normal saline administered for pressure support” value in series [3] (p=0.03 vs placebo, FIG. 10A) came to 40 ± 43 mL. Also, the “volume of extra fluid removed during the dialysis above the baseline prescription” value in series [3] (p=0.045 vs. placebo, FIG. 10B) worked out at 460 ± 100 mL.
